Test results from US20240391862A1, “(1,4,5-TRISUBSTITUTED-1H-PYRAZOL-3-YL)OXY-2-ALKOXY ALKYL ACIDS AND THEIR DERIVATIVES, THEIR SALTS AND THEIR USE AS HERBICIDAL AGENTS” (Bayer AKtiengesellschaft, priority 2021, published 2024).

Tests used:
ZEAMX = test: Post-emergence herbicidal effect and crop plant compatibility, greenhouse pot test; format: in vivo, Zea mays; settings: Zea mays, 504 h, 20 g/ha, one-leaf stage, rated visually after about 3 weeks vs untreated controls, read-out: Post-emergence effect at 20 g/ha against ZEAMX in %
Procedure, shortened: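 Sandy loam pots, greenhouse. One-leaf stage (2–3 wk after sowing) foliar spray; WP/EC in water + 0.5% additive, 600 l/ha; 20–320 g/ha. Visual score ~3 wk, 0–100% vs untreated.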

ABUTH = test: Post-emergence herbicidal effect, greenhouse pot test; format: in vivo, Abutilon theophrasti; settings: Abutilon theophrasti, 504 h, visual rating about 3 weeks after treatment, read-out: Post-emergence effect against ABUTH
Procedure, shortened: (§1)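 Visual % activity scored roughly 3 weeks post-spray against untreated plants, where 100% means death and 0% equals control. Plants were treated at the one-leaf stage, 2 to 3 weeks after sowing in sandy loam, at 20 to 320 g/ha.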

ALOMY = test: as above; format: in vivo, Alopecurus myosuroides; settings: Alopecurus myosuroides, 504 h, visual rating about 3 weeks after treatment, read-out: Post-emergence effect against ALOMY
Procedure, shortened: as §1

AMARE = test: as above; format: in vivo, Amaranthus retroflexus; settings: Amaranthus retroflexus, 504 h, 320 g/ha, visual rating about 3 weeks after treatment, read-out: Post-emergence effect against AMARE
Procedure, shortened: as §1

AVEFA = test: as above; format: in vivo, Avena fatua; settings: Avena fatua, 504 h, visual rating about 3 weeks after treatment, read-out: Post-emergence effect against AVEFA
Procedure, shortened: as §1

DIGSA = test: as above; format: in vivo, Digitaria sanguinalis; settings: Digitaria sanguinalis, 504 h, visual rating about 3 weeks after treatment, read-out: Post-emergence effect against DIGSA
Procedure, shortened: as §1

ECHCG = test: as above; format: in vivo, Echinochloa crus-galli; settings: Echinochloa crus-galli, 504 h; for pest or weed control at 80 g/ha / pest or weed control at 320 g/ha: read-out: Post-emergence effect against ECHCG in %
Procedure, shortened: as §1

LOLRI = test: as above; format: in vivo, Lolium rigidum; settings: Lolium rigidum, 504 h, read-out: Post-emergence effect against LOLRI in %
Procedure, shortened: as §1

MATIN = test: as above; format: in vivo, Tripleurospermum inodorum; settings: Tripleurospermum inodorum, 504 h, read-out: Post-emergence effect against MATIN in %
Procedure, shortened: as §1

PHBPU = test: as above; format: in vivo, Ipomoea purpurea; settings: Ipomoea purpurea, 504 h, read-out: Post-emergence effect against PHBPU in %
Procedure, shortened: as §1

POLCO = test: as above; format: in vivo, Fallopia convolvulus; settings: Fallopia convolvulus, 504 h, read-out: Post-emergence effect against POLCO in %
Procedure, shortened: as §1

SETVI = test: as above; format: in vivo, Setaria viridis; settings: Setaria viridis, 504 h, read-out: Post-emergence effect against SETVI in %
Procedure, shortened: as §1

VERPE = test: as above; format: in vivo, Veronica persica; settings: Veronica persica, 504 h, read-out: Post-emergence effect against VERPE in %
Procedure, shortened: as §1

VIOTR = test: as above; format: in vivo, Viola tricolor; settings: Viola tricolor, 504 h, read-out: Post-emergence effect against VIOTR in %
Procedure, shortened: as §1

KCHSC = test: as above; format: in vivo; settings: for pest or weed control at 80 g/ha / pest or weed control at 320 g/ha: 504 h, read-out: Post-emergence effect against KCHSC in %
Procedure, shortened: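 Greenhouse plants in sandy loam, sprayed post-emergence at the one-leaf stage (2–3 weeks after sowing) with WP or EC formulations in water plus 0.5% additive at 600 l/ha. Rates 20 to 320 g/ha. Activity rated visually after about 3 weeks against untreated controls (0% like control, 100% dead).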

Row | SMILES | plant injury at 20 g/ha (ZEAMX) | pest or weed control at 80 g/ha (ABUTH) | pest or weed control at 320 g/ha (ABUTH) | pest or weed control at 320 g/ha (ALOMY) | pest or weed control at 320 g/ha (AMARE) | pest or weed control at 80 g/ha (AVEFA) | pest or weed control at 320 g/ha (AVEFA) | pest or weed control at 320 g/ha (DIGSA) | pest or weed control at 80 g/ha (ECHCG) | pest or weed control at 320 g/ha (ECHCG) | pest or weed control at 320 g/ha (LOLRI) | pest or weed control at 80 g/ha (MATIN) | pest or weed control at 320 g/ha (MATIN) | pest or weed control at 80 g/ha (PHBPU) | pest or weed control at 320 g/ha (PHBPU) | pest or weed control at 80 g/ha (POLCO) | pest or weed control at 320 g/ha (POLCO) | pest or weed control at 80 g/ha (SETVI) | pest or weed control at 320 g/ha (SETVI) | pest or weed control at 80 g/ha (VERPE) | other results
1 | CCOC(=O)C(OC)Oc1nn(-c2ncccc2F)c(-c2ccc(F)nc2)c1Cl (stereo not drawn) [Example I-48] | 0% | 80% | 90% | 90% | 80% | 90% | 90% | 90% | 90% | 90% | 90% | 80% | 90% | 90% | 90% | 80% | 80% | 90% | 90% | 80% | pest or weed control at 80 g/ha (DIGSA; 80 g/ha): 80%; pest or weed control at 80 g/ha (LOLRI; 80 g/ha): 90%; pest or weed control at 20 g/ha (POLCO; 20 g/ha): 80%; pest or weed control at 320 g/ha (VERPE): 90%; pest or weed control at 20 g/ha (VIOTR; 20 g/ha): 80%; pest or weed control at 80 g/ha (VIOTR): 90%; pest or weed control at 320 g/ha (VIOTR): 90%; pest or weed control at 80 g/ha (KCHSC): 80%; pest or weed control at 320 g/ha (KCHSC): 90%
2 | COC(Oc1nn(-c2ncccc2F)c(-c2cncc(F)c2)c1C1CC1)C(=O)O (stereo not drawn) [Example I-68] | 0% | 80% | 90% | 90% | 80% | 90% | 90% | 90% | 90% | 90% | 90% | 80% | 90% | 90% | 90% | 80% | 80% | 90% | 90% | 90% | pest or weed control at 80 g/ha (ALOMY; 80 g/ha): 90%; pest or weed control at 20 g/ha (ECHCG; 20 g/ha, visual rating about 3 weeks after treatment, read-out: Post-emergence effect against ECHCG): 80%; pest or weed control at 320 g/ha (VERPE): 90%; pest or weed control at 80 g/ha (VIOTR): 90%; pest or weed control at 320 g/ha (VIOTR): 90%; Post-emergence effect against KCHSC in % (KCHSC; 20 g/ha): 90%; pest or weed control at 80 g/ha (KCHSC): 90%; pest or weed control at 320 g/ha (KCHSC): 90%
